According to ChEMBL document CHEMBL1201862, “PubChem BioAssay data set” (2004):
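Compound exposure: 48 hours, 5 concentrations, 96-well plates. GI50 is the concentration that inhibits growth by half.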 Calls of active or inactive are those of the source. Rule as the data show it: active = GI50 up to about 1.1 µM and inactive = higher.

What was measured:
Test in all cases: NCI-60 cell line screen, 48 h
[1] = system: ACHN
[2] = system: BT-549
[3] = system: CAKI-1
[4] = system: COLO 205
[5] = system: EKVX
[6] = system: HCC 2998
[7] = system: HCT-15
[8] = system: HOP-62
[9] = system: M14
[10] = system: MDA-MB-231
[11] = system: NCI-H460
[12] = system: NCI-H522
[13] = system: OVCAR-4
[14] = system: SF-268
[15] = system: SF-295
[16] = system: SK-MEL-28
[17] = system: SK-OV-3
[18] = system: SW-620
[19] = system: T47D
[20] = system: U-251

| SMILES | GI50 [1] | GI50 [2] | GI50 [3] | GI50 [4] | GI50 [5] | GI50 [6] | GI50 [7] [µM] | GI50 [8] | GI50 [9] | GI50 [10] | GI50 [11] | GI50 [12] | GI50 [13] | GI50 [14] | GI50 [15] | GI50 [16] | GI50 [17] | GI50 [18] | GI50 [19] | GI50 [20] |
| --- | --- | --- | --- | --- | --- | --- | --- | --- | --- | --- | --- | --- | --- | --- | --- | --- | --- | --- | --- | --- |
| CC(=O)OC1(C)C(=O)OC/C2=C/CN(C)CCC(OC(=O)C(O)(C(C)Cl)CC1C)C2=O.c1ccccc1 (stereo not given) | > 100 µM (inactive) | > 100 µM (inactive) | > 100 µM (inactive) | > 100 µM (inactive) | > 100 µM (inactive) | > 100 µM (inactive) | > 100 | > 100 µM (inactive) | > 100 µM (inactive) | > 100 µM (inactive) | > 100 µM (inactive) | > 100 µM (inactive) | > 100 µM (inactive) | > 100 µM (inactive) | > 100 µM (inactive) | > 100 µM (inactive) | > 100 µM (inactive) | > 100 µM (inactive) | > 100 µM (inactive) | > 100 µM (inactive) |
| Nc1ccc2c(c1)C(=O)N1CCC[C@H]1C(=O)N2 | > 100 µM (inactive) | > 100 µM (inactive) | > 100 µM (inactive) | > 100 µM (inactive) | > 100 µM (inactive) | > 100 µM (inactive) | > 100 | > 100 µM (inactive) | > 100 µM (inactive) | > 100 µM (inactive) | > 100 µM (inactive) | > 100 µM (inactive) | > 100 µM (inactive) | > 100 µM (inactive) | > 100 µM (inactive) | > 100 µM (inactive) | > 100 µM (inactive) | > 100 µM (inactive) | > 100 µM (inactive) | > 100 µM (inactive) |
| CC(N)(CC(O)(C(F)(F)Cl)C(F)(F)Cl)C(=O)O (stereo not given) | > 10 µM (inactive) | > 10 µM (inactive) | > 10 µM (inactive) | > 10 µM (inactive) | > 10 µM (inactive) | > 10 µM (inactive) | > 10 | > 10 µM (inactive) | > 10 µM (inactive) | > 10 µM (inactive) | > 10 µM (inactive) | > 10 µM (inactive) | > 10 µM (inactive) | > 10 µM (inactive) | > 10 µM (inactive) | > 10 µM (inactive) | > 10 µM (inactive) | > 10 µM (inactive) | > 10 µM (inactive) | > 10 µM (inactive) |
| Nc1cc(S(=O)(=O)O)cc2ccc(S(=O)(=O)O)cc12 | > 100 µM (inactive) | > 100 µM (inactive) | > 100 µM (inactive) | > 100 µM (inactive) | > 100 µM (inactive) | > 100 µM (inactive) | > 100 | > 100 µM (inactive) | > 100 µM (inactive) | > 100 µM (inactive) | > 100 µM (inactive) | > 100 µM (inactive) | > 100 µM (inactive) | > 100 µM (inactive) | > 100 µM (inactive) | > 100 µM (inactive) | > 100 µM (inactive) | > 100 µM (inactive) | > 100 µM (inactive) | > 100 µM (inactive) |
| CC(C)NC(=O)OCc1c(COC(=O)NC(C)C)c(-c2cc[n+](COC(=O)C3CC3)cc2)n2c1CCC2 | 32.4 µM (inactive) | > 100 µM (inactive) | > 100 µM (inactive) | > 100 µM (inactive) | > 100 µM (inactive) | > 100 µM (inactive) | > 100 | > 100 µM (inactive) | > 100 µM (inactive) | > 100 µM (inactive) | > 100 µM (inactive) | > 100 µM (inactive) | > 100 µM (inactive) | > 100 µM (inactive) | > 100 µM (inactive) | > 100 µM (inactive) | > 100 µM (inactive) | > 100 µM (inactive) | > 100 µM (inactive) | > 100 µM (inactive) |
| O=C(C(=O)n1ccc2ccccc21)c1c[nH]c2ccccc12 | > 10 µM (inactive) | > 10 µM (inactive) | > 10 µM (inactive) | > 10 µM (inactive) | > 10 µM (inactive) | > 10 µM (inactive) | > 10 | > 10 µM (inactive) | > 10 µM (inactive) | > 10 µM (inactive) | > 10 µM (inactive) | > 10 µM (inactive) | > 10 µM (inactive) | > 10 µM (inactive) | > 10 µM (inactive) | > 10 µM (inactive) | > 10 µM (inactive) | > 10 µM (inactive) | > 10 µM (inactive) | > 10 µM (inactive) |
| CCOC(=O)Cc1nn2c(=O)cc(C)nc2s1 | > 100 µM (inactive) | > 100 µM (inactive) | > 100 µM (inactive) | > 100 µM (inactive) | > 100 µM (inactive) | > 100 µM (inactive) | > 100 | > 100 µM (inactive) | > 100 µM (inactive) | > 100 µM (inactive) | > 100 µM (inactive) | > 100 µM (inactive) | > 100 µM (inactive) | > 100 µM (inactive) | > 100 µM (inactive) | > 100 µM (inactive) | > 100 µM (inactive) | > 100 µM (inactive) | > 100 µM (inactive) | > 100 µM (inactive) |
| C=C1OC2OC(C)C(NC(=O)OCC(Cl)(Cl)Cl)C(OC(C)=O)C2O1 (stereo not given) | > 100 µM (inactive) | > 100 µM (inactive) | > 100 µM (inactive) | > 100 µM (inactive) | > 100 µM (inactive) | > 100 µM (inactive) | > 100 | > 100 µM (inactive) | > 100 µM (inactive) | > 100 µM (inactive) | > 100 µM (inactive) | > 100 µM (inactive) | > 100 µM (inactive) | > 100 µM (inactive) | > 100 µM (inactive) | > 100 µM (inactive) | > 100 µM (inactive) | > 100 µM (inactive) | > 100 µM (inactive) | > 100 µM (inactive) |
| NNC(=O)c1ccc[n+](CCc2ccccc2)c1 | > 100 µM (inactive) | > 100 µM (inactive) | > 100 µM (inactive) | > 100 µM (inactive) | > 100 µM (inactive) | > 100 µM (inactive) | > 100 | > 100 µM (inactive) | > 100 µM (inactive) | > 100 µM (inactive) | > 100 µM (inactive) | > 100 µM (inactive) | > 100 µM (inactive) | > 100 µM (inactive) | > 100 µM (inactive) | > 100 µM (inactive) | > 100 µM (inactive) | > 100 µM (inactive) | > 100 µM (inactive) | > 100 µM (inactive) |
| CCn1c(SCc2nnc(Nc3ccccc3)s2)nc2ccccc2c1=O | 2.85 µM (inactive) | 5.24 µM (inactive) | 3.04 µM (inactive) | 16.1 µM (inactive) | 3.56 µM (inactive) | 6.68 µM (inactive) | 20.7 | 2.17 µM (inactive) | 10.4 µM (inactive) | 3.18 µM (inactive) | 1.45 µM (inactive) | 2.09 µM (inactive) | 1.82 µM (inactive) | 3.98 µM (inactive) | 2.52 µM (inactive) | 16.4 µM (inactive) | 2.62 µM (inactive) | 16.8 µM (inactive) | 5.57 µM (inactive) | 2.24 µM (inactive) |
| COC(=O)c1c(O)ccc2c1c1c(n2C)C(=O)c2ccccc2C1=O | 9.29 µM (inactive) | 10.4 µM (inactive) | 7.69 µM (inactive) | 65.9 µM (inactive) | 42 µM (inactive) | 11.3 µM (inactive) | 13.1 | 14.8 µM (inactive) | 49.2 µM (inactive) | 10 µM (inactive) | 8 µM (inactive) | 18.4 µM (inactive) | 13.6 µM (inactive) | 13.8 µM (inactive) | 22.5 µM (inactive) | 32.7 µM (inactive) | 6.19 µM (inactive) | 59.4 µM (inactive) | 3.42 µM (inactive) | 15.7 µM (inactive) |
| Cc1cccc(-c2cc(O)c3cc(C)cnc3n2)c1 | 0.532 µM (active) | 0.292 µM (active) | 0.199 µM (active) | 0.105 µM (active) | 0.705 µM (active) | 0.44 µM (active) | 0.183 | 0.373 µM (active) | 0.0998 µM (active) | 0.518 µM (active) | 0.311 µM (active) | 0.0955 µM (active) | 1.95 µM (inactive) | 0.724 µM (active) | 0.148 µM (active) | 1.63 µM (inactive) | 0.272 µM (active) | 0.0475 µM (active) | 6.5 µM (inactive) | 0.147 µM (active) |
| CC(=O)OCC1OC(n2c(C#N)cc(=O)[nH]c2=O)CC1OC(C)=O (stereo not given) | > 100 µM (inactive) | > 100 µM (inactive) | > 100 µM (inactive) | > 100 µM (inactive) | > 100 µM (inactive) | > 10 µM (inactive) | > 100 | > 100 µM (inactive) | > 100 µM (inactive) | > 100 µM (inactive) | > 100 µM (inactive) | > 100 µM (inactive) | > 100 µM (inactive) | > 100 µM (inactive) | > 100 µM (inactive) | > 100 µM (inactive) | > 100 µM (inactive) | > 100 µM (inactive) | > 100 µM (inactive) | > 100 µM (inactive) |
| CC1=NN(c2nc(N)nc(C(C#N)C(=O)c3cc4c(cc3Cl)Sc3nccn3S4(=O)=O)n2)C(C)(C)C1 (stereo not given) | 13.4 µM (inactive) | 13.6 µM (inactive) | 13.5 µM (inactive) | 24.9 µM (inactive) | 16.9 µM (inactive) | 8.41 µM (inactive) | 6.44 | 34.7 µM (inactive) | 34.5 µM (inactive) | 15.6 µM (inactive) | 8.83 µM (inactive) | 18.6 µM (inactive) | 10.1 µM (inactive) | 13.6 µM (inactive) | 20.5 µM (inactive) | 20 µM (inactive) | 18.5 µM (inactive) | 20.5 µM (inactive) | 14.6 µM (inactive) | 16 µM (inactive) |
